Test results as given in patent publication US20240100112A1, “TRADITIONAL CHINESE MEDICINE OINTMENT FOR PREVENTING AND TREATING MASTITIS IN DAIRY COWS, AND PREPARATION METHOD THEREOF” (Hunan University of Science and Engineering, priority 2022, published 2024).

Tested on: mastitis in dairy cows
Experiment: Treatment of dairy cows with mastitis; cure judged by sodium hydroxide curdled milk test
Assay type: in vivo
Conditions: dairy cows with mastitis (SMT detected); ointment 2 g externally twice a day for 5 days, or penicillin 100,000 IU breast perfusion; tested one day after stopping
Description: Fifty dairy cows with mastitis detected by Shanghai Mastitis Test (SMT) are selected from a dairy farm in Hunan Province, of which 20 cows are externally coated with the traditional Chinese medicine ointment for preventing and treating mastitis in dairy cows prepared in embodiment 1 and 20 cows are externally applied with the traditional Chinese medicine ointment for preventing and treating mastitis in dairy cows prepared in comparative example 1, with the dosage of 2 g each time, twice a day for 5 days. The remaining 10 cows are perfused with penicillin 100,000 IU after all the milk is discharged from their breasts, as a control group.
Cure standard: one day after stopping the ointments, if curdled milk is negative by the sodium hydroxide test, the cows are judged to be cured.

SMILES: CC1(C)S[C@@H]2[C@H](NC(=O)Cc3ccccc3)C(=O)N2[C@H]1C(=O)O [Control group, penicillin]
- Cows (head) with curdled milk being negative by sodium hydroxide test: 8 head
- Cure rate (%): 80%
